The test system of test [1] is acute graft-versus-host disease (aGVHD). Put plainly: Disease activity, body weight and probability of survival in acute graft-versus-host disease animal model. Type of test: in vivo, mouse. Particulars: aGVHD mice, FK506 5 mg/kg, microbiome 400 mg/kg, oral once daily 4 weeks. The procedure:
Specifically, in order to fabricate an aGVHD model, a responder mouse Balb/c (H-2k/d) was subjected to total body irradiation (TBI) of 690 cGy, bone marrow stem cells and splenocytes were isolated from the femur and tibia of a donor mouse C57BL/6 (H-2k/b), and then 5×10^6 bone marrow (BM) stem cells and 5×10^6 splenocytes were transplanted into the responder mouse Balb/c (H-2k/d). Thereafter, after the occurrence of aGVHD, 5 mg/kg of FK506 and 400 mg/kg each of Lactobacillus rhamnosus (LR) or Lactobacillus paracasei (LP) were administered orally once daily for 4 weeks. Disease activity, body weight, and probability of survival of mice in each group were measured once a week to confirm whether the disease activity was suppressed (FIG. 5). As control groups, a syngenic (syn) group transplanted with syngenic cells; a vehicle group, in which aGVHD was induced and saline was injected; and groups administered with FK506, Lactobacillus rhamnosus, and Lactobacillus paracasei alone were used.

The next test has as its system IL-17 and IL-10. Put plainly: IL-17 and IL-10 in culture medium under allo response conditions, ELISA. Format: cell-based, human. Conditions: hPBMCs, 72 hours, FK506 1 nM, microbiomes 10 μg/ml each, vs Vehicle group. The procedure: Specifically, the proliferation of allo response T cells was confirmed for FK506 alone (1 nM) and a combination of FK506 (1 nM) and L. gasseri (10 μg/ml); L. gasseri (10 μg/ml) and L. acidophilus (10 μg/ml); two microbiomes (each 10 μg/ml) and zinc (50 μM); or two microbiomes (each 10 μg/ml), zinc (50 μM), vitamin B9, and vitamin B12 (B9+B12 20 μM). Specifically, different human peripheral blood mononuclear cells (hPBMCs) were inoculated at a ratio of 1:1 (each concentration of 1×10^5 cells) on a 96 well plate coated with a concentration of anti CD3 0.5 μg/ml, treated with the combination in hPBMCs in which allo conditions were induced, and then cultured for 72 hours. Thereafter, 10 μl of CCK8 was treated to each well and reacted for 4 hours, and then the cell proliferation response was measured by absorbance at 450 nm. As a control group, a Vehicle group in which the active ingredient was replaced with a solvent was used.
It was confirmed whether the combination of FK506 and the microbiome of the present invention regulated the expression of inflammation-related factors under allo response conditions. Specifically, a culture medium of each cell cultured in Example 7-1 was obtained, and the amounts of IL-17 as an inflammatory factor and IL-10 as an inflammation regulator in the culture medium were analyzed by ELISA.
(In an ELISA, binding on a coated surface is turned into a signal by an enzyme label.)

In another test the test system is IL-17, IL-10, and IFN-γ. Put plainly: IL-17, IL-10 and IFN-γ in hPBMC under T cell stimulation conditions (anti-CD3), ELISA. Type of test: cell-based, human. Particulars: anti-CD3 2 μg/ml, 24 hours, FK506 1 nM, microbiomes 10 μg/ml each. The procedure: (§1) It was confirmed whether the combination of FK506 and the microbiomes of the present inention regulated IL-17 and IL-10 in human peripheral blood mononuclear cells (hPBMCs) under T cell stimulation conditions. Specifically, PBMCs isolated from human peripheral blood were treated with anti-CD3 at a concentration of 2 μg/ml to activate T cells. Thereafter, the PBMCs were treated with FK506 alone (1 nM) and a combination of FK506 (1 nM) and L. gasseri (10 μg/ml); L. gasseri (10 μg/ml) and L. acidophilus (10 μg/ml); two microbiomes (each 10 μg/ml) and zinc (50 μM); or two microbiomes (each 10 μg/ml), zinc (50 μM), vitamin B9, and vitamin B12 (B9+B12 20 μM) and cultured for 24 hours. After completion of the culture, the cell culture medium was obtained, and the amounts of IL-17 and IL-10 in the culture medium were measured by ELISA.

A further test deals with CD4+T cells. The test can be described thus: Alloresponse (T cell proliferation) in allogeneic cell model, 3H thymidine incorporation. Conditions: allogeneic co-culture; FK506 0.3 mg/ml; microbiome 100 μg/ml in combination; FIG. 1. Type of test: cell-based, mouse. The procedure: To confirm an effect of the combination of FK506 and a microbiome of the present invention on transplantation rejection, an allogeneic cell model was used. Specifically, in a 96 well plate, 2×10^5 CD4+T cells from a normal responder (Bclb/c) per well were mixed and co-cultured with 2×10^5 splenocytes from which T cells derived from an irradiated responder (syngenic) or donor (C57BL/6, stimulator, allogeneic) were removed. During co-culture, an allogeneic model was treated with five types of Lactobacillus bacteria, Lactobacillus acidophilus (LA), L. reuteri (LRe), L. rhamnosus (LRh), L. paracasei (LPC) or L. casei (LC) alone at 1, 10, and 100 μg/ml, or administered in combination with 0.3 mg/ml of FK506. As a control group, a syngenic transplantation group (Syn group) and an allogeneic transplantation group (Allo group) were used. Thereafter, in order to confirm alloresponses in mice of each group, T cell proliferation responses (alloresponses) were confirmed in the cultured cells using a 3H thymidine incorporation method.
A general note: Uptake of a labelled nucleoside into DNA is a usual measure of proliferation.

Another test relates to Treg. The test can be described thus: Treg expression in hPBMC under T cell stimulation conditions, flow cytometry. Format: cell-based, human. Particulars: anti-CD3 2 μg/ml, 24 hours, FK506 1 nM, microbiomes 10 μg/ml each, zinc 50 μM, B9+B12 20 μM. The protocol:
as §1
It was confirmed whether the combination of FK506 and the microbiomes of the present invention regulated the expression of Treg reduced by treatment with the immunosuppressant. Specifically, cells in each group of Example 8-1 were obtained, and expression of Treg was confirmed by flow cytometry.

The test system of test [2] is Breg and B10 cells, and CD19-positive and IL-10-positive cells. The test can be described thus: Breg, B10 and CD19-positive IL-10-positive cells in LPS-stimulated hPBMC, flow cytometry. Type of test: cell-based, human. Particulars: LPS 100 ng/ml, 24 hours. The procedure:
The immune cell regulatory effect of the combination of FK506 and the microbiomes of the present invention in hPBMC according to LPS was confirmed. Specifically, PBMCs isolated from human peripheral […] were treated with LPS at a concentration of 100 ng/ml to activate immune cells. Thereafter, FK506 alone; or a combination of FK506 and L. gasseri; L. gasseri and L. acidophilus; microbiomes and zinc; or microbiomes, zinc, vitamin B9, and vitamin B12 was treated and cultured for 24 hours. After completion of culture, cells in each group were obtained, and the expression of immune B cells Breg and B10 cells, and CD19-positive and IL-10-positive cells was confirmed using flow cytometry.
In general terms: A flow cytometer gives signals particle by particle.

Molecule `C=CC[C@@H]1/C=C(\C)C[C@H](C)C[C@H](OC)[C@H]2O[C@@](O)(C(=O)C(=O)N3CCCC[C@H]3C(=O)O[C@H](/C(C)=C/[C@@H]3CC[C@@H](O)[C@H](OC)C3)[C@H](C)[C@@H](O)CC1=O)[C@H](C)C[C@@H]2OC.O` [FK506, Tacrolimus] registered a probability of survival in test [1] (at the end of the experiment) of 60%. In test [1] (compared to the vehicle group), the body weight result is “increased” and the disease activity entry is recorded as “decreased”. Also, the “expression of IL-10 in the culture medium” value in the test with IL-17 and IL-10 is recorded as “significantly decreased”. For the same molecule, in the test on IL-17, IL-10, and IFN-γ (vs Vehicle group), the “amount of IFN-γ” value is “significantly decreased”. The “amount of IL-10” value with IL-17, IL-10, and IFN-γ (zinc 50 μM, B9+B12 20 μM) is on record as “not expressed”. The “T cell proliferation (alloresponse)” value in the test on CD4+T cells is listed as “suppressed”. Moreover, the “expression of Treg” value in the test on Treg is listed as “significantly decreased”. Further, in test [2], the “expression of B10” value is recorded as “decreased”. Also, the “expression of Breg” value in test [2] (vs Vehicle group) is reported as “significantly decreased”.

For the origin of these results see patent publication US20250009817A1, “IMMUNOMODULATING COMPOSITION CONTAINING GASSERI” (THE CATHOLIC UNIVERSITY OF KOREA INDUSTRY-ACADEMIC …, priority 2023, published 2025).
